Legend:
c-MET kinase = c-MET kinase (Homo sapiens (Human), UniProt P08581); experiment: Assay of small molecular compounds for inhibiting the activity of c-MET kinase (LANCE TR-FRET); assay type: biochemical; settings: read-out: CMET IC50
In short: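 LANCE TR-FRET assay with c-MET at 1 nM final after a 5 min room-temperature preincubation with compound (11-point, 3-fold series, 2500–0.042 nM final, 4% DMSO). ULight-JAK-1 (Tyr1023) peptide (100 nM final) and ATP (10 μM final) reacted 60 min in the dark. Inhibition was taken relative to controls, then IC50 fitted.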

MER kinase = MER kinase (Homo sapiens (Human), UniProt Q12866); experiment: Assay of small molecular compounds for inhibiting the activity of MER kinase (LANCE TR-FRET); assay type: biochemical
In short: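 MER kinase preincubated 5 min at RT with compound (11 points, 0.042-2500 nM final), then ULight-poly GT and ATP added (4× stocks 200 nM and 20 μM) for 60 min at RT, 1% DMSO. Phosphorylation detected by LANCE TR-FRET; IC50 from % inhibition versus controls.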

MHCC97H cells = experiment: Assay for inhibiting the proliferation of MHCC97H cells (CCK-8); assay type: cell-based; settings: Homo sapiens
Description: In particular, the method of the assay of small molecular compounds for inhibiting cell proliferation is as follows: • 1. Cells cultured to a logarithmic growth phase (adherent cells need to be digested with trypsin and neutralized) were taken, pipetted evenly, transferred to a 15 mL centrifuge tube, and centrifuged at 1000 rpm at room temperature for 4 minutes; • 2. The supernatant was discarded; 5 mL of complete medium was added and pipetted evenly; 10 μL of cell suspension was taken out, mixed well with 10 μL of 0.4% trypan blue, and counted under a cell counter; the proportion of living cells was ensured to be above 90%; • 3. 80 μL of cell suspension per well was seeded into a 96-well plate according to the conditions shown in the attached table, and cultured overnight; in the outer 36 wells of the 96-well plate, no cells were added but only sterile water was added; only the inner 60 wells were used for cell assay and control; • 4. 5×compound dilution: the compounds were serially diluted 3-fold to obtain a total of 9 concentrations; 80-fold overall dilution was completed with complete medium, the resulting concentration was 5 times the final drug concentration, and DMSO concentration was 1.25%; • 5. 20 μL of the corresponding compounds with different concentration gradients were added to each well of assay wells of the 96-well plate; 20 μL of complete medium was added to positive and negative control wells and shaken well; and the final concentration of DMSO in each well was 0.25%; • 6. After 72 hours of incubation, 10 μL of CCK-8 reagent was added to each well and further incubated at 37° C. for 1-2 hours; and the OD value was read at 450 nm; • 7. Cell survival rate (%)=[(As−Ab)/(Ac−Ab)]*100% • As: Assay well (medium containing cells, CCK-8, compound), • Ac: Control well (medium containing cells, CCK-8), • Ab: Blank well (CCK-8, medium without cell and compound), • 8. The values were imported into Graphpad Prism 5 software for IC50 calculation.

Sequence of MER kinase (Q12866 21-999): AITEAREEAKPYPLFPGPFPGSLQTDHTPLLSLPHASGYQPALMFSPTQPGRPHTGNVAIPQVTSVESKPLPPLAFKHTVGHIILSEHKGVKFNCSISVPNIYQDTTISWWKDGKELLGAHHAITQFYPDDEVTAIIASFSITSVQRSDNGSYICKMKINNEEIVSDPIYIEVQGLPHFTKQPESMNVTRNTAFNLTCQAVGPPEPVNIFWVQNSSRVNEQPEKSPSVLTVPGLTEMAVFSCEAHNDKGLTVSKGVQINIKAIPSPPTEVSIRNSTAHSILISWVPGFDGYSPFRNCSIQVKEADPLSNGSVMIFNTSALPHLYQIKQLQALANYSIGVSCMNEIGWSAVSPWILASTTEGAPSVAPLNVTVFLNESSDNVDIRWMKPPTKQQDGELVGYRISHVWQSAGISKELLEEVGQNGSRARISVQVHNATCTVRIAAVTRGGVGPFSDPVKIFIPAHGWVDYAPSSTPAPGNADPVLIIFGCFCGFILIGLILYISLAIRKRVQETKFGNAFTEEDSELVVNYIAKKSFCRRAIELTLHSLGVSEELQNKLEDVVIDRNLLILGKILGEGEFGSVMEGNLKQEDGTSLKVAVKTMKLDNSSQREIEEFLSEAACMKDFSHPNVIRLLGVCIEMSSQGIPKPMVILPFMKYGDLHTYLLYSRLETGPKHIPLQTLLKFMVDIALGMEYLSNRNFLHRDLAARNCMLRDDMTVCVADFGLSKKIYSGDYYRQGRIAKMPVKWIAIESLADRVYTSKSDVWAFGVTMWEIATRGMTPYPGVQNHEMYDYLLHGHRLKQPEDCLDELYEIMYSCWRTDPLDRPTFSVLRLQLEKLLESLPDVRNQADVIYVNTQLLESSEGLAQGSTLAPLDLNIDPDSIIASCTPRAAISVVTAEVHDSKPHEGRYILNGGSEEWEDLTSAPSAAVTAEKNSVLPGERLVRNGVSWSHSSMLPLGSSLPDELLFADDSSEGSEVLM
Sequence of c-MET kinase (P08581 25-1390): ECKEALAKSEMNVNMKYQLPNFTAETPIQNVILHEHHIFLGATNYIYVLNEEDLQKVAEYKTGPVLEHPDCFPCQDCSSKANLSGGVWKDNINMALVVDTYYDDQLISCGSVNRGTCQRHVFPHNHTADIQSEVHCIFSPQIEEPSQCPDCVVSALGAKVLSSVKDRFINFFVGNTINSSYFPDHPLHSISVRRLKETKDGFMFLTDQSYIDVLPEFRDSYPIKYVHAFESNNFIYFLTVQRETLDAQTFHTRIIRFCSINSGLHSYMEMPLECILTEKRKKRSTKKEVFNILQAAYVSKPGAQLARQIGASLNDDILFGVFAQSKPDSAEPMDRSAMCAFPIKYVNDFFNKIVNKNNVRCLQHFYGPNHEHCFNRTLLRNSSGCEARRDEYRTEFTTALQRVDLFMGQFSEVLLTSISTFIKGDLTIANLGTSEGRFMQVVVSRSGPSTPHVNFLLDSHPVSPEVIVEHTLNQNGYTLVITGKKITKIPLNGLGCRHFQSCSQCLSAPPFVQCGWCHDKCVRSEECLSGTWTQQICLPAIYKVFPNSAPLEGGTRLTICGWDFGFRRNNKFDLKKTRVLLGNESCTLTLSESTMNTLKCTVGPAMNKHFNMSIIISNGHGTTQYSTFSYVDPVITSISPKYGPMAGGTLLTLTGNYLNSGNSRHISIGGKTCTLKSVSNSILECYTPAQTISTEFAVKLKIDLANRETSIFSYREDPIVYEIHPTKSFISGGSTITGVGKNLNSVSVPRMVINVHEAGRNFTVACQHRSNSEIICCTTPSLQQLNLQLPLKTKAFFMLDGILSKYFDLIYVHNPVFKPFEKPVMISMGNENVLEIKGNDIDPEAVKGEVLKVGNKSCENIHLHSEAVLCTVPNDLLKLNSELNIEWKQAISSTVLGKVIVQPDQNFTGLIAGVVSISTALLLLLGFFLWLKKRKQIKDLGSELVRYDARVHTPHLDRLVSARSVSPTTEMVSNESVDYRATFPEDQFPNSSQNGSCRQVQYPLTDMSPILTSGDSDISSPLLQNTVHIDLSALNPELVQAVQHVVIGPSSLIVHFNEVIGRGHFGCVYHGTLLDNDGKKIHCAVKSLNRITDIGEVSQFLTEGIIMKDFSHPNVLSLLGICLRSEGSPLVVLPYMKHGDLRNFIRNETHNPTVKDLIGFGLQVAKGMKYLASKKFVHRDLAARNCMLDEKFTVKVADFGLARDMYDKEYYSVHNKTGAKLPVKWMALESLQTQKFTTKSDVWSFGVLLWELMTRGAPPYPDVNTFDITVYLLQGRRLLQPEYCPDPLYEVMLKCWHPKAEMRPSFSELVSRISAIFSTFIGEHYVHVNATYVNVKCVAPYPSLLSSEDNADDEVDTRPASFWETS

Row | SMILES | IC50 (c-MET kinase) [µM] | IC50 (MER kinase) [µM] | IC50 (MHCC97H cells) [µM]
1 | Cn1cc(C(=O)Nc2ccc(Oc3ccnc4cc(OCC(C)(C)O)c5c(c34)OCCO5)c(F)c2)c(=O)n(-c2ccc(F)cc2)c1=O [Example 121, N-(3-fluoro-4-((5-(2-hydroxy-2-methylpropoxy)-2,3-dihydro-[1,4]dioxino[2,3-f]quinolin-10-yl)oxy)phenyl)-3-(4-fluorophenyl)-1-methyl-2,4-dioxo-1,2,3,4-tetrahydropyrimidine-5-carboxamide] | 0.05 to 0.5 | ≤ 0.05 | 
2 | COc1cc2nccc(Oc3ccc(NC(=O)c4cn(C)c(=O)n(-c5ccc(F)cc5)c4=O)c(Cl)c3)c2c2c1OCCO2 [Example 125, N-(2-chloro-4-((5-methoxy-2,3-dihydro-[1,4]dioxino[2,3-f]quinolin-10-yl)oxy)phenyl)-3-(4-fluorophenyl)-1-methyl-2,4-dioxo-1,2,3,4-tetrahydropyrimidine-5-carboxamide] | 0.05 to 0.5 | 0.05 to 0.5 | 
3 | O=C(Nc1ccc(Oc2ccnc3ccc4c(c23)OCCO4)cc1F)c1cccn(-c2ccc(F)cc2)c1=O [Example 170, N-(4-((2,3-dihydro-[1,4]dioxino[2,3-f]quinolin-10-yl)oxy)-2-fluorophenyl)-1-(4-fluorophenyl)-2-oxo-1,2-dihydropyridine-3-carboxamide] | 0.05 to 0.5 | ≤ 0.05 | 
4 | CCn1cc(C(=O)Nc2ccc(Oc3ccnc4cc(OC)c5c(c34)OCCO5)c(F)c2)c(=O)n(-c2ccc(F)cc2)c1=O [Example 37, N-(3-fluoro-4-((5-methoxy-2,3-dihydro-[1,4]dioxino[2,3-f]quinolin-10-yl)oxy)phenyl)-3-(4-fluorophenyl)-1-ethyl-2,4-dioxo-1,2,3,4-tetrahydropyrimidine-5-carboxamide] | ≤ 0.05 | ≤ 0.05 | 
5 | CCOc1cc2nccc(Oc3ccc(NC(=O)c4c(OC)ccn(-c5ccc(F)cc5)c4=O)c(Cl)c3)c2c2c1OCCO2 [Example 128, N-(2-chloro-4-((5-ethoxy-2,3-dihydro-[1,4]dioxino[2,3-f]quinolin-10-yl)oxy)phenyl)-1-(4-fluorophenyl)-4-methoxy-2-oxo-1,2-dihydropyridine-3-carboxamide] | ≤ 0.05 | ≤ 0.05 | 
6 | CCOc1ccn(-c2ccc(F)cc2)c(=O)c1C(=O)Nc1ccc(Oc2ccnc3cc(OCC(C)(C)O)c4c(c23)OCCO4)cc1Cl [Example 142, N-(2-chloro-4-((5-(2-hydroxy-2-methylpropoxy)-2,3-dihydro-[1,4]dioxino[2,3-f]quinolin-10-yl)oxy)phenyl)-1-(4-fluorophenyl)-4-ethoxy-2-oxo-1,2-dihydropyridine-3-carboxamide] | ≤ 0.05 | ≤ 0.05 | 
7 | CCOc1ccn(-c2ccc(F)cc2)c(=O)c1C(=O)Nc1ccc(Oc2ccnc3cc(OCCCC#N)c4c(c23)OCCO4)cc1Cl [Example 134, N-(2-chloro-4-((5-(3-cyanopropoxy)-2,3-dihydro-[1,4]dioxino[2,3-f]quinolin-10-yl)oxy)phenyl)-1-(4-fluorophenyl)-4-ethoxy-2-oxo-1,2-dihydropyridine-3-carboxamide] | ≤ 0.05 | ≤ 0.05 | 
8 | CC(C)n1cc(C(=O)Nc2ccc(Oc3ccnc4cc(OCC(C)(C)O)c5c(c34)OCCO5)c(F)c2)c(=O)n(-c2ccc(F)cc2)c1=O [Example 122, N-(3-fluoro-4-((5-(2-hydroxy-2-methylpropoxy)-2,3-dihydro-[1,4]dioxino[2,3-f]quinolin-10-yl)oxy)phenyl)-3-(4-fluorophenyl)-1-isopropyl-2,4-dioxo-1,2,3,4-tetrahydropyrimidine-5-carboxamide] | ≤ 0.05 | ≤ 0.05 | 
9 | CCOc1ccn(-c2ccc(F)cc2)c(=O)c1C(=O)Nc1ccc(Oc2ccnc3ccc4c(c23)OCCO4)cc1F [Example 171, N-(4-((2,3-dihydro-[1,4]dioxino[2,3-f]quinolin-10-yl)oxy)-2-fluorophenyl)-1-(4-fluorophenyl)-4-ethoxy-2-oxo-1,2-dihydropyridine-3-carboxamide] | ≤ 0.05 | ≤ 0.05 | 
10 | O=C(Nc1ccc(Oc2ccnc3cc(OCCCN4CCCCC4)c4c(c23)OCCO4)cc1Cl)c1cccn(-c2ccc(F)cc2)c1=O [Example 135, N-(2-chloro-4-((5-((3-piperidin-1-yl)propoxy)-2,3-dihydro-[1,4]dioxino[2,3-f]quinolin-10-yl)oxy)phenyl)-1-(4-fluorophenyl)-2-oxo-1,2-dihydropyridine-3-carboxamide] | ≤ 0.05 | ≤ 0.05 | 

More lines, main results first:

Row | IC50 (c-MET kinase) [µM] | IC50 (MER kinase) [µM] | SMILES | IC50 (MHCC97H cells) [µM]
11 | ≤ 0.05 | ≤ 0.05 | COc1cc2ncnc(Oc3ccc(NC(=O)c4cn(C)c(=O)n(-c5ccc(F)cc5)c4=O)cc3F)c2c2c1OCCO2 [Example 29, N-(3-fluoro-4-((5-methoxy-2,3-dihydro-[1,4]dioxino[2,3-f]quinazolin-10-yl)oxy)phenyl)-3-(4-fluorophenyl)-1-methyl-2,4-dioxo-1,2,3,4-tetrahydropyrimidine-5-carboxamide] | 
12 | ≤ 0.05 | ≤ 0.05 | CC(C)n1cc(C(=O)Nc2ccc(Oc3ccnc4cc(OCCCN(C)C5CCC5)c5c(c34)OCCO5)c(F)c2)c(=O)n(-c2ccc(F)cc2)c1=O [Example 96, N-(3-fluoro-4-((5-(3-((cyclobutyl)(methyl)amino)propoxy)-2,3-dihydro-[1,4]dioxino[2,3-f]quinolin-10-yl)oxy)phenyl)-3-(4-fluorophenyl)-1-isopropyl-2,4-dioxo-1,2,3,4-tetrahydropyrimidine-5-carboxamide] | 
13 | ≤ 0.05 | ≤ 0.05 | COc1ccn(-c2ccc(F)cc2)c(=O)c1C(=O)Nc1ccc(Oc2ccnc3cc(OCCCN4CCCCC4)c4c(c23)OCCO4)cc1Cl [Example 136, N-(2-chloro-4-((5-((3-piperidin-1-yl)propoxy)-2,3-dihydro-[1,4]dioxino[2,3-f]quinolin-10-yl)oxy)phenyl)-1-(4-fluorophenyl)-4-methoxy-2-oxo-1,2-dihydropyridine-3-carboxamide] | 
14 | ≤ 0.05 | ≤ 0.05 | Cn1cc(C(=O)Nc2ccc(Oc3ncnc4cc(OCCCN5CCOCC5)c5c(c34)OCCO5)c(F)c2)c(=O)n(-c2ccc(F)cc2)c1=O [Example 30, N-(3-fluoro-4-((5-(3-morpholinopropoxy)-2,3-dihydro-[1,4]dioxino[2,3-f]quinazolin-10-yl)oxy)phenyl)-3-(4-fluorophenyl)-1-methyl-2,4-dioxo-1,2,3,4-tetrahydropyrimidine-5-carboxamide] | 
15 | ≤ 0.05 | ≤ 0.05 | CCOc1cc2nccc(Oc3ccc(NC(=O)c4cccn(-c5ccc(F)cc5)c4=O)c(Cl)c3)c2c2c1OCCO2 [Example 127, N-(2-chloro-4-((5-ethoxy-2,3-dihydro-[1,4]dioxino[2,3-f]quinolin-10-yl)oxy)phenyl)-1-(4-fluorophenyl)-2-oxo-1,2-dihydropyridine-3-carboxamide] | 
16 | ≤ 0.05 |  | CCn1cc(C(=O)Nc2cc(F)c(Oc3ccnc4cc(OCCOC)c5c(c34)OCCO5)cc2C)c(=O)n(-c2ccc(F)cc2)c1=O [Example 180, N-(5-fluoro-4-((5-(2-methoxyethoxy)-2,3-dihydro-[1,4]dioxino[2,3-f]quinolin-10-yl)oxy)-2-methylphenyl)-3-(4-fluorophenyl)-1-ethyl-2,4-dioxo-1,2,3,4-tetrahydropyrimidine-5-carboxamide] | ≤ 0.05
17 | ≤ 0.05 | ≤ 0.05 | CC(C)n1cc(C(=O)Nc2ccc(Oc3ccnc4cc(OCCCN5CCC(C)(O)CC5)c5c(c34)OCCO5)c(F)c2)c(=O)n(-c2ccc(F)cc2)c1=O [Example 94, N-(3-fluoro-4-((5-(3-(4-methyl-4-hydroxypiperidin-1-yl)propoxy)-2,3-dihydro-[1,4]dioxino[2,3-f]quinolin-10-yl)oxy)phenyl)-3-(4-fluorophenyl)-1-isopropyl-2,4-dioxo-1,2,3,4-tetrahydropyrimidine-5-carboxamide] | 
18 | ≤ 0.05 | ≤ 0.05 | COc1cc2nccc(Oc3cc(C)c(NC(=O)c4cn(C)c(=O)n(-c5ccc(F)cc5)c4=O)cc3F)c2c2c1OCCO2 [Example 177, N-(5-fluoro-4-((5-methoxy-2,3-dihydro-[1,4]dioxino[2,3-f]quinolin-10-yl)oxy)-2-methylphenyl)-3-(4-fluorophenyl)-1-methyl-2,4-dioxo-1,2,3,4-tetrahydropyrimidine-5-carboxamide] | 0.05 to 0.2
